The structures appear in SMILES notation.

One experiment has as its target T1, human GR (glucocorticoid receptor) (Homo sapiens, UniProt P04150).
T1 construct: expressed in transfected cells; host or cells: 293 cells
T1 sequence (P04150 1-777): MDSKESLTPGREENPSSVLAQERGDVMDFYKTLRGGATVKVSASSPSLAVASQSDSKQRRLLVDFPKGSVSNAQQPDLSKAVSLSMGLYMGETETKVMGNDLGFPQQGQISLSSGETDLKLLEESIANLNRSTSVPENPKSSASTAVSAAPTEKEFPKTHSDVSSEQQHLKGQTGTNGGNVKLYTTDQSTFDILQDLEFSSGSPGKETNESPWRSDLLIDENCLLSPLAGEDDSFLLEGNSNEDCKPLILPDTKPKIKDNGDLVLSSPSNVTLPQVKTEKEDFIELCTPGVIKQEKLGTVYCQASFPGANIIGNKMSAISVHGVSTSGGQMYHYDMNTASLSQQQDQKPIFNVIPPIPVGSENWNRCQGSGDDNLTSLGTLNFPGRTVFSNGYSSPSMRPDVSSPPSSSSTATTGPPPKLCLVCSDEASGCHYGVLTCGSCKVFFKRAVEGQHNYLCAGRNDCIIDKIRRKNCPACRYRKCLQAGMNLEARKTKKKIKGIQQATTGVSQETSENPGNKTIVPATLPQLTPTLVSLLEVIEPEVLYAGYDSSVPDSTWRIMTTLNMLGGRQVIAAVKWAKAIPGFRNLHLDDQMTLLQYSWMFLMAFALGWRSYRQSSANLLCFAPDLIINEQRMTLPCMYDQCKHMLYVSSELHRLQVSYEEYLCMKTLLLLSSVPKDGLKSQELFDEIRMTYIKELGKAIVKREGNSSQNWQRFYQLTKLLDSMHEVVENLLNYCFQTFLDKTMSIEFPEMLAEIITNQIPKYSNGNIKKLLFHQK
Briefly: Alternative Binding Assay Protocol (Method 2), GR. Particulars: 3H-dexamethasone, 293-GR lysate, racemic mixture unless otherwise indicated. As to the method:
Cell lysates from 293 cells overexpressing human GR (glucocorticoid receptor), AR (androgen receptor), MR (mineralocorticoid receptor) or PR (progesterone receptor) are used for competition binding assays to determine Ki values for test compounds. Briefly, competition binding assays are run in a buffer containing 20 mM Hepes, pH 7.6, 0.2 mM EDTA, 75 mM NaCl, 1.5 mM MgCl2, 20% glycerol, 20 mM sodium molybdate, 0.2 mM DTT, 20 ug/ml aprotinin and 20 ug/ml leupeptin, using either 0.3 nM ^3H-dexamethasone for GR binding, 0.36 nM ^3H-methyltrienolone for AR binding, 0.25 nM ^3H-aldosterone for MR binding, or 0.29 nM ^3H-methyltrienolone for PR binding, and either 20 ug 293-GR lysate, 22 ug 293-AR lysate, 20 ug 293-MR lysate or 40 ug 293-PR lysate per well. Competing compounds are added at various concentraions in half-log increments. Non-specific binding is determined in the presence of 500 nM dexamethasone for GR binding, 500 nM aldosterone for MR binding, or 500 nM methyltrienolone for AR and PR binding,. The binding reaction (140 μl) is incubated for overnight at […], then 70 μl of cold charcoal-dextran buffer (containing per 50 ml of assay buffer, 0.75 g of charcoal and 0.25 g of dextran) is added to each reaction. Plates are mixed 8 minutes on an orbital shaker at 4° C. Plates are then centrifuged at 3,000 rpm at 4° C. for 10 minutes. An aliquot of 120 μl of the mix is transferred to another 96-well plate and 175 μl of Wallac Optiphase “Hisafe 3” scintillation fluid is added to each well. Plates are sealed and shaken vigorously on an orbital shaker. After an incubation of 2 hrs, plates are read in a Wallac Microbeta counter. The data is used to calculate an IC50 and % Inhibition at 10 μM. The Kd for ^3H-dexamethasone for GR binding, ^3H-methyltrienolone for AR binding, ^3H-aldosterone for MR binding, or ^3H-methyltrienolone for PR binding, is determined by saturation binding. The IC50 values for compounds are converted to Ki using Cheng-Prusoff equation and the Kd determined by saturation binding assay.
The Ki is a measure of affinity in units of concentration, obtained from inhibition or displacement. `CS(=O)(=O)Nc1cccc2c(C3(C4CC4)CCc4cc(F)ccc43)c[nH]c12` (single isomer, unassigned) [Example 39A, N-[3-(1-Cyclopropyl-5-fluoro-indan-1-yl)-1H-indol-7-yl]-methanesulfonamide]: the Ki was at most 500 nM.
Consider `CS(=O)(=O)Nc1cccc2c(C3(C4CC4)CCc4cc(F)ccc43)c[nH]c12` (single isomer, unassigned) [Example 39B, N-[3-(1-Cyclopropyl-5-fluoro-indan-1-yl)-1H-indol-7-yl]-methanesulfonamide], for which the Ki is at most 500 nM.
`CS(=O)(=O)Nc1cccc2c(C3(CCCO)CCc4cc(F)ccc43)c[nH]c12` (single isomer, unassigned) [Example 40A, N-{3-[5-Fluoro-1-(3-hydroxy-propyl)-indan-1-yl]-1H-indol-7-yl}-methanesulfonamide]: the Ki was at most 500 nM.
Same read-out and setting: as for `CS(=O)(=O)Nc1cccc2c(C3(CCCO)CCc4cc(F)ccc43)c[nH]c12` (single isomer, unassigned) [Example 40B, N-{3-[5-Fluoro-1-(3-hydroxy-propyl)-indan-1-yl]-1H-indol-7-yl}-methanesulfonamide], the figure is at most 500 nM; as for `CCC1(c2c[nH]c3c([N+](=O)[O-])cccc23)CCc2cc(F)ccc21` (centres unmarked) [Example 2, 3-(1-Ethyl-5-fluoro-indan-1-yl)-7-nitro-1H-indole], at most 500 nM; as for `CCC1(c2cn(C)c3c(NS(C)(=O)=O)cccc23)CCc2cc(F)ccc21` (centres unmarked) [Example 5, N-[3-(1-Ethyl-5-fluoro-indan-1-yl)-1-methyl-1H-indol-7-yl]-methanesulfonamide], at most 500 nM.
On to `CCC1(c2c[nH]c3c(N)cccc23)CCc2cc(F)ccc21` (centres unmarked) [Example 14, 3-(1-Ethyl-5-fluoro-indan-1-yl)-1H-indol-7-ylamine], for which the Ki is at most 1000 nM.
On to `CCC1(c2c[nH]c3c(NC(=O)OC)cccc23)CCc2cc(F)ccc21` (centres unmarked) [Example 15, [3-(1-Ethyl-5-fluoro-indan-1-yl)-1H-indol-7-yl]-carbamic acid methyl ester], for which the Ki was at most 500 nM.
The same measure, in the same setting: as for `CCC1(c2c[nH]c3c(NC(C)=O)cccc23)CCc2cc(F)ccc21` (centres unmarked) [Example 16, N-[3-(1-ethyl-5-fluoro-indan-1-yl)-1H-indol-7-yl]-acetamide], the figure is at most 500 nM.
Consider `CCC1(c2c[nH]c3c(NS(=O)(=O)N(C)C)cccc23)CCc2cc(F)ccc21` (centres unmarked) [Example 17], for which the Ki is at most 500 nM.
Take `CCC1(c2c[nH]c3c(NS(=O)(=O)c4ccccc4)cccc23)CCc2cc(F)ccc21` (centres unmarked) [Example 18, N-[3-(1-ethyl-5-fluoro-indan-1-yl)-1H-indol-7-yl]-benzenesulfonamide]: the Ki is at most 500 nM.
Regarding `CCC1(c2c[nH]c3c(NS(=O)(=O)CC)cccc23)CCc2cc(F)ccc21` (centres unmarked) [Example 19, Ethanesulfonic acid [3-(1-ethyl-5-fluoro-indan-1-yl)-1H-indol-7-yl]-amide], the Ki was at most 500 nM.
As to `CS(=O)(=O)Nc1cccc2c(C3(CCCI)CCc4cc(F)ccc43)c[nH]c12` (centres unmarked) [Example 41, N-{3-[5-Fluoro-1-(3-iodo-propyl)-indan-1-yl]-1H-indol-7-yl}-methanesulfonamide], the Ki was at most 500 nM.
Same read-out and setting: as for `CNCCCC1(c2c[nH]c3c(NS(C)(=O)=O)cccc23)CCc2cc(F)ccc21` (centres unmarked) [Example 42, N-{3-[5-Fluoro-1-(3-methylamino-propyl)-indan-1-yl]-1H-indol-7-yl}-methanesulfonamide], the figure is at most 500 nM; as for `CS(=O)(=O)Nc1cccc2c(C3(CCCN4CCOCC4)CCc4cc(F)ccc43)c[nH]c12` (centres unmarked) [Example 44, N-{3-[5-Fluoro-1-(3-morpholin-4-yl-propyl)-indan-1-yl]-1H-indol-7-yl}-methanesulfonamide], at most 500 nM.

For another experiment, the target named is T2, glucocorticoid receptor (A549 human lung epithelial cell extract) (Homo sapiens, UniProt P04150).
T2 construct: host or cells: A549 human lung epithelial cells
T2 sequence (P04150 1-777): T1 sequence (P04150 1-777)
Nature of the experiment: Glucocorticoid Receptor Binding Assay (Method 1). Particulars: [3H]-dexamethasone, racemic mixture unless otherwise indicated, read-out: GR Ki (nM) Method 1. How it is done: A549 human lung epithelial cells (ATCC) are grown at a scale where gram quantity cell pellets are obtained. Harvested cell pellets are washed twice in cold phosphate buffered saline, centrifuged, and resuspended in cold assay binding buffer. The assay binding buffer consists of 10% glycerol, 50 mM Tris-HCl (pH7.2), 75 mM sodium chloride, 1.5 mM magnesium chloride, 1.5 mM EDTA, and 10 mM sodium molybdate. Cell suspensions were lysed via sonication, centrifuged, and the “extract” supernatant is snap frozen and stored at −80 C until needed.
GR binding assays are performed in a final volume of 140 ul containing 50-200 ug of A549 cell extract and 1.86 nM [^3H]-dexamethasone (Amersham) plus varying concentrations of test compound or vehicle. Briefly, assays are prepared at RT in 96-well Fisher 3356 plates, each well containing 100 ul of A549 cell extract, 20 ul of [^3H]-dexamethasone, and 20 ul of test compound/vehicle. Incubations are carried out at 4 degrees Celsius for 16 hours. After incubation, 70 ul of 3× dextran-coated charcoal solution is added to each reaction, mixed, and incubated for 8 minutes at RT. 3×-dextran-coated charcoal solution consists of 250 ml assay binding buffer, 3.75 g Norit A charcoal (Sigma), and 1.25 g dextran T-70 (Amersham). Charcoal/unbound radioligand complexes are removed by centrifugation of the plate and 140 ul of supernatant from each well is transferred to another 96 well Optiplate (Packard Instruments). 200 ul of Microscint-20 scinillant (Packard Instruments) is added to each well and amount of receptor bound radioligand is determined using Packard Instruments TopCount instrument.
IC50 values, defined as the concentration of test compound required to decrease [^3H]-dexamethasone binding by 50%, are then determined. Ki values for each respective test compound can then be calculated by application of the Cheng-Prusoff equation as described in Cheng et al., Relationship Between The Inhibition Constant (Ki) and The Concentration of Inhibitor Which Causes 50% Inhibition (IC50) of an Enzymatic Reaction, Biochem. Pharmacol., 22: 3099-31088; (1973).
Turning to `CCC1(c2c[nH]c3c(NS(C)(=O)=O)cccc23)CCc2cc(F)ccc21` (racemic) [Example 1, N-[3-(1-ethyl-5-fluoro-indan-1-yl)-1H-indol-7-yl]-methanesulfonamide], the Ki is at most 500 nM.
`CC1(c2c[nH]c3c(NS(C)(=O)=O)cccc23)CCc2cc(F)ccc21` (racemic) [Example 21, N-[3-(5-Fluoro-1-methyl-indan-1-yl)-1H-indol-7-yl]-methanesulfonamide]: the Ki is at most 500 nM.
On the same count and under the same terms, in the case of `CCC1(c2c[nH]c3c(NS(C)(=O)=O)cccc23)CCc2cc(F)cc(F)c21` (racemic) [Example 23, N-[3-(1-Ethyl-5,7-difluoro-indan-1-yl)-1H-indol-7-yl]-methanesulfonamide] it was at most 500 nM.
The same measure, in the same setting: as for `CC1(c2c[nH]c3c(NS(C)(=O)=O)cccc23)CCCc2cc(F)ccc21` (racemic) [Example 28, N-[3-(6-Fluoro-1-methyl-1,2,3,4-tetrahydro-naphthalen-1-yl)-1H-indol-7-yl]-methanesulfonamide], the figure is at most 500 nM.
The same measure, in the same setting: as for `CCC1(c2c[nH]c3c(NS(C)(=O)=O)cccc23)CCCc2cc(F)ccc21` (racemic) [Example 29, N-[3-(1-Ethyl-6-fluoro-1,2,3,4-tetrahydro-naphthalen-1-yl)-1H-indol-7-yl]-methanesulfonamide], the figure is at most 500 nM; as for `CCC1(c2c[nH]c3c(NS(C)(=O)=O)cccc23)CCCc2cc(F)cc(F)c21` (racemic) [Example 31, N-[3-(1-Ethyl-6,8-difluoro-1,2,3,4-tetrahydro-naphthalen-1-yl)-1H-indol-7-yl]-methanesulfonamide], at most 500 nM.
For `CCC1(c2c[nH]c3c(NS(C)(=O)=O)cccc23)CCc2cc(F)ccc21` (single isomer, unassigned) [Example 1A, N-[3-(1-ethyl-5-fluoro-indan-1-yl)-1H-indol-7-yl]-methanesulfonamide], the Ki was at most 500 nM.
For the compound `CC1(c2c[nH]c3c(NS(C)(=O)=O)cccc23)CCc2cc(F)ccc21` (single isomer, unassigned) [Example 21A, N-[3-(5-Fluoro-1-methyl-indan-1-yl)-1H-indol-7-yl]-methanesulfonamide], the Ki is at most 500 nM.

The values are drawn from patent publication US20070185161A1, “Bicyclic substituted indole-derivative steroid hormone nuclear receptor modulators” (priority 2004, published 2007).
